Measured values reported in patent US8013153B2, “Substituted pyrimidine kinase inhibitors” (Janssen Pharmaceutica, N.V., priority 2006, dated 2011).
Where two headings read alike, the source gives them in different places.

How the values were obtained:
HCT-116 colon carcinoma = experiment: Inhibition of in vitro cell proliferation (HCT116); format: cell-based, human;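 also: cells exposed to compound for 24 h, then 14C-thymidine added for a further 24 h and its uptake into DNA counted by scintillation, DMSO-only wells as control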
HER2 cytoplasmic domain = biological target: T1, HER2 cytoplasmic domain (Homo sapiens, UniProt P04626); experiment: HER2 Kinase Screening Assay; format: biochemical; conditions: > means no observed 50% inhibition at the indicated test concentration; ~ means approximately 50% inhibition at that concentration
T1 construct: polyhistidine (N)
Description: (§1) A kinase reaction mixture was prepared containing 50 mM Tris-HCl pH=8, 10 mM MgCl2, 0.1 mM Na3PO4, 1 mM DTT, 10 μM ATP, 0.025 μM biotinylated histone-H1 peptide substrate and 0.2 μCuries per well ^33P-γ-ATP (2000-3000 Ci/mmol). 70 μL of the kinase reaction mixture was dispensed into the well of a streptavidin coated FlashPlate™ (Cat. # SMP103, NEN, Boston, Mass.). Then 1 μL of test compound stock in 100% DMSO was added to the wells resulting in a final concentration of 1% DMSO in the reaction with a 100 μL final reaction volume.
(§2) The CDK1:Cyclin-B protein was diluted in 50 mM Tris-HCl pH=8.0, 0.1% BSA at a concentration of 1 ng per μL and 30 μL (30 ng enzyme per test well) was added to each well to initiate the reaction. The reaction was incubated for one hour at 30° C. At the end of the 1 hour incubation, the reaction was terminated by aspirating the mixture from the plate and washing the wells twice with PBS containing 100 mM EDTA. The histone-H1 biotinylated peptide substrate became immobilized on the Flashplate™ and the incorporation of ^33P-γ-ATP was measured by reading the plate on a scintillation counter. Inhibition of the enzymatic activity of CDK1 was measured by observing a reduced amount of ^33P-γ-ATP incorporated into the immobilized peptide.
The HER2 kinase assay was carried out using the CDK kinase assay procedure except that the enzyme was replaced with a HER2 construct containing a polyhistidine tag at the N-terminus followed by 24 additional amino acids and the HER2 cytoplasmic domain beginning at amino acid 676 (Accession #M11730) to the end.

murine Aurora-A = biological target: T2, murine Aurora-A (Mus musculus, UniProt P97477); experiment: Aurora-A Screening Assay; format: biochemical
T2 construct: replaced with the full length protein encoding the murine Aurora-A; made in house; host or cells: sf9 insect cells
T2 sequence (P97477 1-395): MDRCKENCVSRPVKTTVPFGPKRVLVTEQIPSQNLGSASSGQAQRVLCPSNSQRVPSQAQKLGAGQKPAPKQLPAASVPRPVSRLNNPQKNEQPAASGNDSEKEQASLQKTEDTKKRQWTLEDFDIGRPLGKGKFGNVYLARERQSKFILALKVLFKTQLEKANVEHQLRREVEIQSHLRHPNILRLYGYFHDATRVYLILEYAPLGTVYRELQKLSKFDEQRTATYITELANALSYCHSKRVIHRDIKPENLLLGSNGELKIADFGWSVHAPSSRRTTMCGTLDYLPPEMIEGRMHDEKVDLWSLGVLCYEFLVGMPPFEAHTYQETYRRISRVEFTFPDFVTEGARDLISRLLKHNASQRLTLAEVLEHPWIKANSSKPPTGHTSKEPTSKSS
Description: as §1, §2
The Aurora-A kinase assay was carried out using the CDK kinase assay procedure except that the enzyme was replaced with the full length protein encoding the murine Aurora-A (Accession #GB BC014711) expressed and purified from sf9 insect cells.

[1] = system: HeLa cervical adenocarcinoma; experiment: Inhibition of in vitro cell proliferation (HeLa); format: cell-based, human; conditions: 14C-thymidine incorporation;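 also: cells exposed to compound for 24 h, then labelled 24 h with methyl 14C-thymidine, with uptake into DNA counted by scintillation against DMSO-only control wells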
CDK1:Cyclin-B = biological target: T3, CDK1:Cyclin-B (Homo sapiens, UniProt P06493); experiment: CDK1 Screening Assay; format: biochemical
T3 construct: purchased New England Biolabs, Beverly, Mass; 6020; host or cells: insect cells
Description: as §1, §2
The CDK1 used was isolated from insect cells expressing both the human CDK1 catalytic subunit and its positive regulatory subunit cyclin B (New England Biolabs, Beverly, Mass., Cat. #6020).

[2] = biological target: T4, rat VEGF-R2 kinase domain (Rattus norvegicus, UniProt O08775); experiment: VEGF-R2 Screening Assay; format: biochemical
T4 construct: amino acids 786-1343 of the rat VEGF-R2 kinase domain; polyhistidine (N)

A375 malignant melanoma = experiment: Inhibition of in vitro cell proliferation (A375); format: cell-based, human;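 also: cells plated for 24 h, given compound for 24 h, then labelled with 14C-thymidine for another 24 h, with DMSO-only wells as control and counts read by scintillation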
[3] = Homo sapiens, HCT-116, 14C-thymidine incorporation
[4] = > means no observed 50% inhibition at the indicated test concentration, ~ means approximately 50% inhibition at that concentration, read-out: IC50 VEGF-R2
[5] = Homo sapiens, A-375, 14C-thymidine incorporation

T4 sequence (O08775 786-1343): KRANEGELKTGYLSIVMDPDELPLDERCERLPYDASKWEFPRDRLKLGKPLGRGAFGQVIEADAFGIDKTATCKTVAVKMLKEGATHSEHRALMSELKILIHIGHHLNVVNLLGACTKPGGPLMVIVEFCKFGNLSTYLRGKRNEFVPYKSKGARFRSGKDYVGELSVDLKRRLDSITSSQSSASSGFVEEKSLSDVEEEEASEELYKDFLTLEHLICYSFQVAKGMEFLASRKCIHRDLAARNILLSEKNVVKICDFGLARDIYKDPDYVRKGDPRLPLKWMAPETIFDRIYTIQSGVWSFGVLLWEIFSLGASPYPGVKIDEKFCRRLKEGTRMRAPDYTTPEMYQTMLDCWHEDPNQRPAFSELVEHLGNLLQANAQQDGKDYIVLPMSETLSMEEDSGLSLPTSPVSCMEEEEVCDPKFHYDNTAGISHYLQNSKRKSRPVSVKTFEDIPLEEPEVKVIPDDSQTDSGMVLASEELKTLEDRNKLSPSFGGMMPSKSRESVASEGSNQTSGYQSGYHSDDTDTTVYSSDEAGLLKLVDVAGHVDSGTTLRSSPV
T1 sequence (P04626 676-1255 limits assumed): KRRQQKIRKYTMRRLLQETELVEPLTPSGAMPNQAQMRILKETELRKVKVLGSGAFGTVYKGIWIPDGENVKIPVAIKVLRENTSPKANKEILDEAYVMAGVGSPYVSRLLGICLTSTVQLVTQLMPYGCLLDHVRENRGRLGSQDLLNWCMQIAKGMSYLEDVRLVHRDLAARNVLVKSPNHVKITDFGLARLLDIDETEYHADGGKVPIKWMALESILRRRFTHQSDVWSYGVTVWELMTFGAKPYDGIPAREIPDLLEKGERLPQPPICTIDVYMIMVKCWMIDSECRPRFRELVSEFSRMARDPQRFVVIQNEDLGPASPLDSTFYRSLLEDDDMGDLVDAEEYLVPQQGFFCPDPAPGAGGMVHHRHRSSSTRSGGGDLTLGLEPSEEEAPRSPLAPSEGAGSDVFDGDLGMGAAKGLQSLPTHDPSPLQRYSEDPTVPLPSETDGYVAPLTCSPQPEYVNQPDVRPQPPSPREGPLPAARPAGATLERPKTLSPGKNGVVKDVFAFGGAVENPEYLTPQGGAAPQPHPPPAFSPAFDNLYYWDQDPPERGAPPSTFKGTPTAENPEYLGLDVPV
T3 sequence (P06493 whole entry): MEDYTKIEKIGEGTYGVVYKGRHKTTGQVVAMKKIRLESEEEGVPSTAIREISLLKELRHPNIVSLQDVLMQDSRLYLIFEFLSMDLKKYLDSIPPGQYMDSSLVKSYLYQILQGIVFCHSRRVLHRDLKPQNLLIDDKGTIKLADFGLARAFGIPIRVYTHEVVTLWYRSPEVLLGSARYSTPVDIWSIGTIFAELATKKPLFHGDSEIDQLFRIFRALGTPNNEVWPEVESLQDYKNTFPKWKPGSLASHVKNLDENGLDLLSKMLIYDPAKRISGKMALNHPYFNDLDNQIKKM
T3 sequence (P14635 whole entry partner): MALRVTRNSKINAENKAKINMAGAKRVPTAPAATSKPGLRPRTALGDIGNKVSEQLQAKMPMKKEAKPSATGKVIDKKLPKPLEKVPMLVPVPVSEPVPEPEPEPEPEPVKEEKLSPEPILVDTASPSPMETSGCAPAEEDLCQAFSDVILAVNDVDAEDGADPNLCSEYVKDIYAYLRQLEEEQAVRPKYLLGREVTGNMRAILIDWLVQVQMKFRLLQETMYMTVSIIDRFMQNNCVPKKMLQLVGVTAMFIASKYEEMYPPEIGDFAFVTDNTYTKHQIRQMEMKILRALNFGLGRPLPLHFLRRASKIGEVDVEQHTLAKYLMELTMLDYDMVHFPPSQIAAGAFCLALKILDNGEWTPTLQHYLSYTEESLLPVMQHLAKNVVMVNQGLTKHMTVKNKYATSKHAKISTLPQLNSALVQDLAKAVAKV

IC50 (HCT-116 colon carcinoma; [3]) [µM]	IC50 (HER2 cytoplasmic domain) [µM]	IC50 (murine Aurora-A) [µM]	IC50 ([1]; Homo sapiens) [µM]	IC50 (CDK1:Cyclin-B) [µM]	IC50 [2, 4] [µM]	IC50 (A375 malignant melanoma; [5]) [µM]	IC50 (HCT-116 colon carcinoma; 14C-thymidine incorporation) [µM]	IC50 [1] [µM]	IC50 (A375 malignant melanoma; 14C-thymidine incorporation) [µM]	Structure (SMILES)	IC50 ([2]; IC50 VEGF-R2) [µM]
> 100	0.282	> 100	> 100	> 100	0.085	> 100				Cc1cc2c(F)c(Oc3ncnc(N)c3C=NOCCCCN3CCCCC3)ccc2[nH]1 [Cpd 24, 4-amino-6-(4-fluoro-2-methyl-1H-indol-5-yloxy)-pyrimidine-5-carbaldehyde O-(4-piperidin-1-yl-butyl)-oxime]	
	> 100	> 100		> 100	0.0016		> 100	> 100	> 100	CON=Cc1c(N)ncnc1Oc1ccc(NC(=O)Nc2ccc(OC)cc2)c(Cl)c1 [Cpd 62, 1-{4-[6-amino-5-(methoxyimino-methyl)-pyrimidin-4-yloxy]-2-chloro-phenyl}-3-(4-methoxy-phenyl)-urea]	
> 1	1.02	> 100	> 100	> 100	0.048	> 100				Cc1cc2c(F)c(Oc3ncnc(N)c3C=NOCCCCN3CCOCC3)ccc2[nH]1 [Cpd 26, 4-amino-6-(4-fluoro-2-methyl-1H-indol-5-yloxy)-pyrimidine-5-carbaldehyde O-(4-morpholin-4-yl-butyl)-oxime]	
3.62	> 100	> 100	4.02	> 100	2.21	2.69				CON=Cc1c(N)ncnc1Oc1ccc(NC(C)=O)c(Cl)c1 [Cpd 94, N-{4-[6-amino-5-(methoxyimino-methyl)-pyrimidin-4-yloxy]-2-chloro-phenyl}-acetamide]	
0.333	> 100	> 100	0.324	> 100	0.046	0.07				Cc1cc2c(F)c(Oc3ncnc(N)c3C=NOCC3CC3)ccc2[nH]1 [Cpd 32, 4-amino-6-(4-fluoro-2-methyl-1H-indol-5-yloxy)-pyrimidine-5-carbaldehyde O-cyclopropylmethyl-oxime]	
3.77	> 10	> 100	4.95	> 100	0.152	3.5				CON=Cc1c(N)ncnc1Oc1ccc(NC(=O)OC)c(Cl)c1 [Cpd 95, {4-[6-amino-5-(methoxyimino-methyl)-pyrimidin-4-yloxy]-2-chloro-phenyl}-carbamic acid methyl ester]	
> 10	> 1	> 100	> 10	> 100	0.003	> 10				CON=Cc1c(N)ncnc1Oc1ccc(NC(=O)Nc2cccc(Cl)c2)c(Cl)c1 [Cpd 59, 1-{4-[6-amino-5-(methoxyimino-methyl)-pyrimidin-4-yloxy]-2-chloro-phenyl}-3-(3-chloro-phenyl)-urea]	
4.86	> 100	> 10	4.06	> 100	0.278	2.55				CNC(=O)Nc1ccc(Oc2ncnc(N)c2C=NOC)c(Cl)c1 [Cpd 70, 1-{4-[6-amino-5-(methoxyimino-methyl)-pyrimidin-4-yloxy]-3-chloro-phenyl}-3-methyl-urea]	
> 100	0.555	> 100	> 100	> 100	~1	> 100				CON=Cc1c(N)ncnc1Oc1ccc(OCc2ccccc2)cc1 [Cpd 110, 4-amino-6-[4-(benzyloxy)phenoxy]-5-pyrimidinecarboxaldehyde O-methyloxime]	
4.79	> 1	> 10	3.98	> 100	0.179	3.09				CCNC(=O)Nc1ccc(Oc2ncnc(N)c2C=NOC)c(Cl)c1 [Cpd 71, 1-{4-[6-amino-5-(methoxyimino-methyl)-pyrimidin-4-yloxy]-3-chloro-phenyl}-3-ethyl-urea]	
> 100	> 100	> 100	> 100	> 100	0.0016	> 100				CON=Cc1c(N)ncnc1Oc1ccc(NC(=O)Nc2ccc(C)cc2)c(Cl)c1 [Cpd 77, 1-{4-[6-amino-5-(methoxyimino-methyl)-pyrimidin-4-yloxy]-2-chloro-phenyl}-3-p-tolyl-urea]	
> 10	> 10	> 100	> 10	> 100	0.142	> 10				CNC(=O)Nc1ccc(Oc2ncnc(N)c2C=NOC)cc1F [Cpd 72, 1-{4-[6-amino-5-(methoxyimino-methyl)-pyrimidin-4-yloxy]-2-fluoro-phenyl}-3-methyl-urea]	
> 10	> 10	> 100	> 10	> 100	0.002	> 10				CON=Cc1c(N)ncnc1Oc1ccc(NC(=O)Nc2cccc(C)c2)c(Cl)c1 [Cpd 76, 1-{4-[6-amino-5-(methoxyimino-methyl)-pyrimidin-4-yloxy]-2-chloro-phenyl}-3-m-tolyl-urea]	

Structure (SMILES)	IC50 (HCT-116 colon carcinoma; [3]) [µM]	IC50 (HER2 cytoplasmic domain) [µM]	IC50 (murine Aurora-A) [µM]	IC50 ([1]; Homo sapiens) [µM]	IC50 (CDK1:Cyclin-B) [µM]	IC50 [2, 4] [µM]	IC50 (A375 malignant melanoma; [5]) [µM]	IC50 (HCT-116 colon carcinoma; 14C-thymidine incorporation) [µM]	IC50 [1] [µM]	IC50 (A375 malignant melanoma; 14C-thymidine incorporation) [µM]	IC50 ([2]; IC50 VEGF-R2) [µM]
CON=Cc1c(N)ncnc1Oc1ccc(NC(=O)Nc2ccccc2OC)c(Cl)c1 [Cpd 58, 1-{4-[6-amino-5-(methoxyimino-methyl)-pyrimidin-4-yloxy]-2-chloro-phenyl}-3-(2-methoxy-phenyl)-urea]	8.19	1.7	> 100	11.9	> 100	0.0025	5.06				
CON=Cc1c(N)ncnc1Oc1ccc(NC(=O)NC(C)C)c(Cl)c1 [Cpd 80, 1-{4-[6-amino-5-(methoxyimino-methyl)-pyrimidin-4-yloxy]-2-chloro-phenyl}-3-isopropyl-urea]	> 10	> 10	> 10	> 10	> 100	0.0729	> 1				
CON=Cc1c(N)ncnc1Oc1ccc(NC(=O)NCCCO)c(Cl)c1 [Cpd 83, 1-{4-[6-amino-5-(methoxyimino-methyl)-pyrimidin-4-yloxy]-2-chloro-phenyl}-3-(3-hydroxy-propyl)-urea]	3.78	> 10	> 100	4.18	> 100		3.94				0.4
CON=Cc1c(N)ncnc1Oc1ccc(NC(=O)Nc2ccccc2C)c(Cl)c1 [Cpd 75, 1-{4-[6-amino-5-(methoxyimino-methyl)-pyrimidin-4-yloxy]-2-chloro-phenyl}-3-o-tolyl-urea]	> 100	> 100	> 100	> 100	> 100	0.0079	> 100				
CON=Cc1c(N)ncnc1Oc1ccc(NC(=O)NCCCCN2CCCC2)c(Cl)c1 [Cpd 84, 1-{4-[6-amino-5-(methoxyimino-methyl)-pyrimidin-4-yloxy]-2-chloro-phenyl}-3-(4-pyrrolidin-1-yl-butyl)-urea]	> 10	> 10	> 10	> 10	> 100	0.759	> 1				
